The subject of test [1] is STZ (130 mg/kg) diabetic pigs. Kind of test: Hyperinsulinemic euglycemic clamp in STZ diabetic pigs after two-week metformin treatment. The test is classed as in vivo, pig. The method, then: (§1) Protocol 5: insulin-mediated whole body glucose disposal, after a two-week placebo or metformin (twice 1.5 g per day) oral treatment period under conditions of iso-energetic feeding, was studied with the hyperinsulinemic (2 mU/kg/minute) euglycemic clamp technique in 14 STZ (130 mg/kg) diabetic pigs.
After overnight fasting, at t=0 minute, insulin was administered as a prime—(17 or 34 mU/kg) continuous (1 or 2 mU/kg/minute) infusion for three hours in normal pigs. Simultaneously, a variable infusion of a 33% D-glucose solution was started and adjusted every ten minutes to maintain the plasma glucose concentration at euglycemic levels and a 6,6-^2H-glucose solution was given as a prime—(216 mg) continuous (3.6 mg/minute). Steady-state conditions were achieved within 90 minutes after initiation of the hyperinsulinemic clamp and steady-state calculations were carried out during the last hour of the clamp (t=120, 135, 150, 165 and 180 minutes). In hyperglycemic diabetic pigs, insulin was given as a prime—(34 or 136 mU/kg) continuous (2 or 8 mU/kg/minute) infusion for five hours. After reaching euglycemic levels, a variable infusion of a 33% D-glucose solution was started and adjusted every ten minutes to maintain the plasma glucose concentration at euglycemia. At t=2 hours, 6,6-^2H-glucose was administered as a prime— (216 mg) continuous (3.6 mg/minute) infusion for the last three hours of the clamp in diabetic pigs. Steady-state conditions were achieved during the last hour of the clamp and steady-state calculations were carried out at (t=240, 255, 270, 285 and 300 minutes).

The test system of test [2] is STZ (130 mg/kg) diabetic pigs. The experiment in a line: Two-week oral metformin treatment of STZ diabetic pigs: postprandial plasma glucose and insulin, body weight, urinary glucose excretion. In kind it is in vivo, pig. As for the experimental part: as §1
Fasting blood samples were taken before the start of hyperinsulinemic clamp experiments and postprandial blood samples were taken two to three hours after a morning meal in the week following a clamp study.
Plasma insulin concentration was measured using a Delfia assay (test kit No. B080-1101 by Perkin Elmer Life Sciences, trust by Wallac Oy, Turku, Finland). This specific pig insulin assay was validated using pig insulin standards. Plasma and urine glucose concentrations were analyzed enzymically on an autoanalyzer of Radiometer (ABL and AML, Copenhagen, Denmark). Urine was collected in buckets containing 0.5 grams Halamid-d (sodium-p-toluenesulfonchloramide, Akzo Nobel Chemicals, Amersfoort, NL) to prevent microbial breakdown of glucose. Urine volume was registered over a given interval in order to calculate the rate of urinary glucose excretion. Urine samples (0.5 mL) were stored at −20° C. for later glucose analyses. Ketones (acetoacetic acid) were determined in fresh urine by a reagent strip test (Ketostix, Bayer Diagnostics, Mijdrecht, NL).

Test [3] deals with rodent. The following applies: rodent studies, relatively high doses (100 to 500 mg/kg); cited from earlier work.
Where [4] appears, read: after two weeks metformin, insulin 2 mU/kg/minute.
[5] abbreviates: metformin twice 1.5 g per day oral, two weeks.

Regarding `CN(C)C(=N)N=C(N)N` [Metformin, metformin], in test [1] (after two weeks metformin), the Fasting plasma glucose is 14.7 ± 1.5 mmol/L; the Fasting plasma insulin was 11 ± 6 mU/L; the “Fasting plasma insulin, range” value was “range (3-37) mU/L”; the “Increase in insulin-stimulated whole body glucose disposal compared to placebo-treated diabetic pigs” value worked out at 60%. In addition, the “Reduction in fasting plasma glucose compared to placebo-treated diabetic pigs” value in test [1] (after two weeks metformin) was found to be 24%. Besides, in test [1] (setting [4]), the “Steady-state clamp glucose infusion rate (whole body glucose disposal)” value came to 9.4 ± 2.2 mg/kg/min, the “Steady-state clamp plasma glucose” value is recorded as 5.3 ± 0.3 mmol/L, the “Steady-state clamp plasma insulin” value is recorded as 42 ± 7 mU/L and the “Time to reach euglycemia in diabetic pigs” value stood at 105 ± 28 min. In addition, the “Steady-state clamp glucose infusion rate (whole body glucose disposal)” value in test [1] (after two weeks metformin, insulin 2 mU/kg/minute, listed as metformin) turned out to be 9.4 mg/kg/min. Also, the “Whole body glucose disposal, metformin group compared to placebo group” value in test [1] (similar insulin stimulation) is listed as 1.6 fold. The “Reduction in postprandial plasma glucose compared to placebo-treated pigs” value in test [2] (after 14 days of metformin) came to 30%. For the same compound, in test [2] (metformin group, baseline), the “Postprandial plasma glucose, before treatment” value is reported as 31.0 ± 5.8 mmol/L and the “Postprandial plasma insulin, before treatment” value stood at 1 ± 0 mU/L. In test [2] (setting [5]), the “Postprandial plasma glucose, at end of treatment” value is given as 24.9 ± 2.2 mmol/L and the “Postprandial plasma insulin, at end of treatment” value amounted to 3 ± 1 mU/L. For the same compound, in test [3], the “Effect on glucose homeostasis” value is “immediate (within days) effect”.
